Reference: PubChem BioAssay (NCI)
Where “and” joins values, the source holds several entries; their conditions need not be identical. Equal entries are not always repeated.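 96-well plates; 48 h exposure; 5 concentrations. Endpoints by linear interpolation between flanking doses. Not reached: highest tested concentration assigned. At the GI50, growth is halved. TGI is the concentration that stops growth completely.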

What was measured:
Assay in all cases: DTP human tumour cell line panel, 48 h
786-0 renal = system: 786-0 renal
NCI-H226 lung = system: NCI-H226 lung
UACC-62 melanoma = system: UACC-62 melanoma
SF-268 CNS = system: SF-268 CNS
NCI-H522 lung = system: NCI-H522 lung
U251 CNS = system: U251 CNS
SN12C renal = system: SN12C renal
HCC-2998 colon = system: HCC-2998 colon
UO-31 renal = system: UO-31 renal
SK-OV-3 ovarian = system: SK-OV-3 ovarian

SMILES | TGI (786-0 renal) | TGI (NCI-H226 lung) | TGI (UACC-62 melanoma) | TGI (SF-268 CNS) | TGI (NCI-H522 lung) | TGI (U251 CNS) | TGI (SN12C renal) [µM] | TGI (HCC-2998 colon) | TGI (UO-31 renal) | TGI (SK-OV-3 ovarian) | GI50 (786-0 renal) | GI50 (NCI-H226 lung) | GI50 (UACC-62 melanoma) | GI50 (SF-268 CNS) | GI50 (NCI-H522 lung) | GI50 (U251 CNS) | GI50 (SN12C renal) | GI50 (HCC-2998 colon) | GI50 (UO-31 renal) | GI50 (SK-OV-3 ovarian)
CCC1c2cc3n(c(=O)c2COC1O)Cc1c-3nc2ccccc2c1Cl (configuration not stated) | > 100 µM | > 100 µM | > 100 µM | > 100 µM | > 100 µM | > 100 µM | > 100 | > 100 µM | > 100 µM | > 100 µM | – | – | – | – | – | – | – | – | – | –
CN(C)CC1CCCCCCCCCCCCC(CN(C)C)C1=O (configuration not stated) | 21.7 µM | 23.9 µM | 26.1 µM | 26 µM | – | 28 µM | 29.4 | 22.2 µM | 26.8 µM | 32.3 µM | – | – | – | – | – | – | – | – | – | –
Cn1c(=O)c2[nH]c(CCCc3ccc([N+](=O)[O-])cc3)nc2n(C)c1=O | > 100 µM | > 100 µM | > 100 µM | > 100 µM | > 100 µM | > 100 µM | > 100 | – | > 100 µM | > 100 µM | – | – | – | – | – | – | – | – | – | –
COc1cc(/C=C/C(=O)c2c(C)nc3ccccc3c2C)ccc1OCCCCOc1cc2c(cc1OC)C(=O)N1CCC[C@H]1C=N2 | 1.86 µM | 3.26 µM | 2.02 µM | 1.04 µM | 1.26 µM | 0.955 µM | 9.87 | 1.16 µM | 1.08 µM | 3.08 µM | 0.602 µM | 1.3 µM | 0.6 µM | 0.277 µM | 0.339 µM | 0.305 µM | 0.509 µM | 0.519 µM | 0.252 µM | 1.18 µM
CCOC(=O)[C@@H](C)C[C@H](Cc1ccccc1)NC(=O)c1csc([C@@H](C[C@H](C(C)C)N(C)C(=O)[C@@H](NC(=O)[C@H]2C[C@H](O)CCN2C)C(C)C)OC(C)=O)n1 | > 16.7 µM | 0.34 µM | > 16.7 µM | > 16.7 µM | 0.0367 µM | > 16.7 µM | > 16.7 | > 16.7 µM | > 16.7 µM | > 16.7 µM | 0.0273 µM | 0.0105 µM | < 0.00167 µM | 0.00881 µM | < 0.00167 µM | 0.00614 µM | 0.00936 µM | 0.00295 µM | 0.647 µM | 0.00474 µM
O=C(/C=C/c1cccc(S(=O)(=O)Nc2ccccc2)c1)NO | 12.6 µM and 11.2 µM | 11.5 µM and 5.11 µM | 1.53 µM and 0.196 µM | 15.6 µM and 8.91 µM | 1.98 µM and 17.2 µM | 4.38 µM and 10.7 µM | – | 2.48 µM and 1.91 µM | 5.91 µM and 29.5 µM | 6.64 µM and > 29.4 µM | 2.17 µM and 0.934 µM | 2.34 µM and 0.694 µM | – | 1.22 µM and 0.324 µM | 0.191 µM and 0.0603 µM | 0.597 µM and 0.496 µM | 1.68 µM and 0.244 µM | 0.519 µM and 0.258 µM | 0.448 µM and 0.134 µM | 0.457 µM and 0.486 µM
O=C1NC(=O)C(c2ccccc2)=C1Nc1ccccc1 | > 25 µM | – | > 25 µM | > 25 µM | > 25 µM | > 25 µM | > 25 | > 25 µM | > 25 µM | > 25 µM | > 25 µM | – | > 25 µM | > 25 µM | > 25 µM | > 25 µM | > 25 µM | > 25 µM | > 25 µM | > 25 µM
O=C1/C(=C\c2ccccc2)CN(C(=O)c2ccccc2)C/C1=C\c1ccccc1 | 4.44 µM | > 100 µM | 3.42 µM | 14.8 µM | 5.27 µM | 4.44 µM | 4.31 | 3.48 µM | 3.92 µM | 9.44 µM | 2 µM | 19.3 µM | 1.69 µM | 3.4 µM | 2.29 µM | 1.92 µM | 1.9 µM | 1.89 µM | 1.7 µM | 3.1 µM
CCCCN(CC)CCCCCCCCCCN1CCCc2cc(OC)ccc21 | 3.94 µM | 8.16 µM | 5.31 µM | 32.1 µM | 3.5 µM | 7.56 µM | 15.3 | 6.38 µM | 11.3 µM | 21 µM | 2.03 µM | 2.8 µM | 2.03 µM | 6.52 µM | 1.66 µM | 2.93 µM | 3.36 µM | 2.32 µM | 2.08 µM | 5.19 µM
COC(=O)[C@@H](C)C[C@H](Cc1ccccc1)NC(=O)c1csc([C@@H](C[C@H](C(C)C)N(C)C(=O)C2(NC(=O)[C@H]3CCCCN3C)CCC2)OC(C)=O)n1 | > 25 µM | > 25 µM | > 25 µM | > 25 µM | – | > 25 µM | > 25 | > 25 µM | > 25 µM | > 25 µM | – | 0.0547 µM | 0.00244 µM and 0.0025 µM | 0.00661 µM and 0.0175 µM | 0.00165 µM | 0.00545 µM and 0.00627 µM | 0.0087 µM and 0.017 µM | 0.00501 µM and 0.00628 µM | 0.734 µM and 0.157 µM | 0.0156 µM and 0.00504 µM
Brc1ccc(Nc2nc3ccccc3nc2Nc2ccc(Br)cc2)cc1 | 5.9 µM | 10.1 µM | 5.37 µM | 13.3 µM | 3.25 µM | 2.22 µM | 6.5 | 7.7 µM | 6.3 µM | 7.69 µM | 1.73 µM | 2.75 µM | 1.94 µM | 1.69 µM | 0.449 µM | 0.429 µM | 2.16 µM | 1.66 µM | 1.83 µM | 2.14 µM
C=CCC12CCC(=O)[C@@]1(C)CC=C(O)C2=O (some centres not stated) | > 100 µM | > 100 µM | > 100 µM | > 100 µM | > 100 µM | > 100 µM | > 100 | > 100 µM | > 100 µM | > 100 µM | – | – | – | – | – | – | – | – | – | –
O=[N+]([O-])c1ccc(/C(Cl)=C/c2ccc(/C=C(\Cl)c3ccc([N+](=O)[O-])cc3[N+](=O)[O-])cc2)c([N+](=O)[O-])c1 | > 100 µM | > 100 µM | > 100 µM | > 100 µM | > 100 µM | > 100 µM | > 100 | > 100 µM | > 100 µM | > 100 µM | – | – | – | – | – | – | – | – | – | –
